{"source": "patent US20220031684A1", "about": "“PROPHYLACTIC EFFICACY OF SEROTONIN 4 RECEPTOR AGONISTS AGAINST STRESS” (THE TRUSTEES OF COLUMBIA UNIVERSITY IN THE CITY OF NEW YORK, priority 2019, published 2022)", "key": {"129S6/SvEv mice [1]": {"tested_on": "129S6/SvEv mice", "experiment": "3-shock contextual fear conditioning (CFC)", "format": "in vivo", "description": "(§1) This chronic CORT elevation dysregulates the hypothalamic-pituitary-adrenal axis (HPA) in a manner similar to that observed in clinical depression. The dose and duration of CORT treatment was selected based on previous studies. CORT (35 μg/ml, equivalent to about 5 mg/kg/day) dissolved in 0.45% hydroxypropyl-o-cyclodextrin (0-CD) or vehicle (VEH) (0.45% j-CD) was available ad libitum in the drinking water in opaque bottles to protect it from light. VEH- and CORT-treated water was changed every 3 days to prevent possible degradation. Contextual Fear Conditioning (CFC): A 3-shock CFC procedure was administered as previously published. Briefly, mice were placed into context A and administered 3 2-s shocks (0.75 mA) at 180 s, 240 s or 300 s following placement into context A. Mice were removed from the context 15 s following the termination of shock (at 317 s). For context retrieval, mice were placed back into context A for 300 s. Electrophysiology: Electrophysiology was conducted as previously described. Statistical Analysis: Results from data analyses are expressed as means±SEM. Alpha was set to 0.05 for all analyses. Data were analyzed using GraphPad Prism v7.0 or v8.0. For all experiments, unless otherwise noted, one- or two-way ANOVAs with repeated-measures were applied to the data as appropriate. Significant main effects and/or interactions were followed by Fisher's PLSD post hoc analysis or unpaired t-tests. Drugs: All drugs were prepared in physiological saline and all injections were administered intraperitoneally (i.p.) in volumes of 0.1 cc per […] body weight unless otherwise noted. Fluoxetine hydrochloride (Flx): Flx (BioTrend Chemicals AG, BG197, Zurich, Germany) was administered in the drinking water (18 mg/kg/day) for 3 weeks before the start of CORT. […] (R,S)-ketamine (K): (R,S)-ketamine (Ketaset III, Ketamine HCl injection, Fort Dodge Animal Health, Fort Dodge, Iowa) was administered in a single dose at 30 mg/kg of body weight 1 week before the start of CFC. […] PF-04995274: PF-04995274 (Sigma, Catalog No. 1331782-27-4, St. Louis, Mo.) was administered a single dose at 3 or 10 mg/kg of body weight 1 week before the start of CFC. PF-04995274 was dissolved in saline using an ultrasonic homogenizer (BioLogics, Model 3000, Manassas, Va.). Osmotic minipump implantation: ALZET osmotic minipumps (Model 2004, […], 28 days) were implanted subcutaneously under isoflurane anesthesia as previously described [S2]. Osmotic minipumps were rotated under the skin two to three times per week. Behavioral Assays: All experiments were approved by the Institutional Animal Care and Use Committee (IACUC) at the New York Psychiatric Institute (NYSPI). Elevated Plus Maze (EPM): Testing was performed as previously described [S3]. Briefly, the maze is a plus-cross-shaped apparatus consisting of four arms, two open and two enclosed by walls, linked by a central platform at a height of 50 cm from the floor. Mice were individually placed in the center of the maze facing an open arm and were allowed to explore the maze for 5 min. The time spent in and the number of entries into the open arms was used as an anxiety index. Videos were scored using ANY-maze behavior tracking software (Stoelting, Wood Dale, Ill.). Novelty-Suppressed Feeding: The NSF is a conflict test that elicits competing motivations: the drive to eat and the fear of venturing into the center of a brightly lit arena. The latency to feed is used as an index of anxiety-like behavior, because classical anxiolytic drugs decrease this measure. The NSF test was carried out during an 8 min period as previously described [S3]. Briefly, the testing apparatus consisted of a plastic box (50×50×20 cm), the floor of which was covered with approximately 2 cm of bedding. For 129S6/SvEv experiments, mice were food restricted for 12 h. For the C57BL/6N experiments, mice were food restricted for 24 h. […]"}, "129S6/SvEv mice [2]": {"tested_on": "129S6/SvEv mice", "experiment": "Forced swim test (FST) after CFC", "format": "in vivo", "description": "as §1"}, "CA3 pyramidal cells": {"tested_on": "CA3 pyramidal cells", "experiment": "Whole-cell voltage clamp recordings of spontaneous EPSCs in CA3 slices", "format": "cell-based, mice", "conditions": "(R,S)-ketamine 30 mg/kg or prucalopride 3 mg/kg injected 1 week before slicing", "description": "as §1"}, "5-HT4R": {"biological_target": "5-HT4R", "conditions": "cited from earlier work"}, "[3]": {"biological_target": "hERG (human Ether-a-go-go Related Gene) channels (Homo sapiens, UniProt Q12809)", "sequence (Q12809 whole entry)": "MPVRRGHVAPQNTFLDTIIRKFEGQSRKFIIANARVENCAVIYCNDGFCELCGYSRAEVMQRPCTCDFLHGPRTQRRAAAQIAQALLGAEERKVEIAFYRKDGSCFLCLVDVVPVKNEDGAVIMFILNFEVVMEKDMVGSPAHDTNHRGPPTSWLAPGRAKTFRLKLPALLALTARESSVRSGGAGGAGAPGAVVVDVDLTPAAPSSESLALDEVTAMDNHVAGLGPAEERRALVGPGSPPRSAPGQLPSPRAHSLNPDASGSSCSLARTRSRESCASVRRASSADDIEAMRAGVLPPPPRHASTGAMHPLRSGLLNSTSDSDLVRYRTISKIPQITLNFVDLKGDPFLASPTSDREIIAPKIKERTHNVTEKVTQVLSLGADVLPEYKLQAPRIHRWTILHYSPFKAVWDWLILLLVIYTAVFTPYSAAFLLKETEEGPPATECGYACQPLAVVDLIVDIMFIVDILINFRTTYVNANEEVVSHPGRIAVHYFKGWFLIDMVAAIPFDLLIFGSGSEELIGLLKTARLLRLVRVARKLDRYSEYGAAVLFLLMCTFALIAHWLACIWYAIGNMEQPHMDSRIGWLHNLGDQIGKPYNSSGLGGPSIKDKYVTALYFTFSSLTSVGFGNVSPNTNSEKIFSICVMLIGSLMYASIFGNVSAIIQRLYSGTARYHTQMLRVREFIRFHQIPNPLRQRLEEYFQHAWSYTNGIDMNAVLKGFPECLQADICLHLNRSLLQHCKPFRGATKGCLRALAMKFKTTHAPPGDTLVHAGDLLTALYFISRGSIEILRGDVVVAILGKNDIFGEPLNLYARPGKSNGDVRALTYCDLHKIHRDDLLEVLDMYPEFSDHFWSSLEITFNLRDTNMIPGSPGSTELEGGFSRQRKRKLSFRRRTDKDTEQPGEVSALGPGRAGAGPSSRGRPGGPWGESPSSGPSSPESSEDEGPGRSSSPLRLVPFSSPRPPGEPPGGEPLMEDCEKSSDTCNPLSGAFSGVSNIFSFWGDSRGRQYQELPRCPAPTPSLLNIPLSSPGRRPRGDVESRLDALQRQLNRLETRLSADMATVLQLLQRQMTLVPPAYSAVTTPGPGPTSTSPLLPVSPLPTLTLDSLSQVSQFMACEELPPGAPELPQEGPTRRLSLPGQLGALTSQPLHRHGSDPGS", "conditions": "cited from earlier work"}, "[4]": {"conditions": "FIG. 4 cohort, Male, FIG. 4C, RMANOVA, Fisher's LSD"}, "[5]": {"conditions": "FIG. 4 cohort, Male, FIG. 4D, ANOVA, Fisher's LSD"}, "[6]": {"conditions": "FIG. 4 cohort, Male, FIG. 4F, RMANOVA, Fisher's LSD"}, "[7]": {"conditions": "FIG. 4 cohort, Male, FIG. 4G, ANOVA, Fisher's LSD"}}, "note": "Counter-ions that a name gives are not always drawn."}
{"compound": "COCCCN1CCC(NC(=O)c2cc(Cl)c(N)c3c2OCC3)CC1", "note": "[Prucalopride, 4-amino-5-chloro-2,3-dihydro-N-[1-3-methoxypropyl)-4-piperidinyl]-7-benzofuran carboxamide monohydrochloride]", "values": [{"measurement": "p, CFC Re-exposure Freezing (%), Prucalopride (3 mg/kg) vs. PF04995274 (3 mg/kg)", "setting": "129S6/SvEv mice [1]; [4]", "result": 0.0014}, {"measurement": "p, CFC Re-exposure Freezing (%), Prucalopride (3 mg/kg) vs. PF04995274 (10 mg/kg)", "setting": "129S6/SvEv mice [1]; [4]", "result": 0.2229}, {"measurement": "p, CFC Re-exposure Freezing (%), Prucalopride (3 mg/kg) vs. Prucalopride (10 mg/kg)", "setting": "129S6/SvEv mice [1]; [4]", "result": 0.0004}, {"measurement": "p, CFC Re-exposure Freezing (%), Prucalopride (10 mg/kg) vs. PF04995274 (3 mg/kg)", "setting": "129S6/SvEv mice [1]; [4]", "result": 0.7981}, {"measurement": "p, CFC Re-exposure Freezing (%), Prucalopride (10 mg/kg) vs. PF04995274 (10 mg/kg)", "setting": "129S6/SvEv mice [1]; [4]", "result": 0.0568}, {"measurement": "p, CFC Re-exposure Freezing (%), Saline vs. Prucalopride (3 mg/kg)", "setting": "129S6/SvEv mice [1]; [4]", "result": 0.0004}, {"measurement": "p, CFC Re-exposure Freezing (%), Saline vs. Prucalopride (10 mg/kg)", "setting": "129S6/SvEv mice [1]; [4]", "result": 0.4723}, {"measurement": "p, CFC Re-exposure, Prucalopride (3 mg/kg) vs. PF04995274 (3 mg/kg)", "setting": "129S6/SvEv mice [1]; [5]", "result": 0.0014}, {"measurement": "p, CFC Re-exposure, Prucalopride (3 mg/kg) vs. PF04995274 (10 mg/kg)", "setting": "129S6/SvEv mice [1]; [5]", "result": 0.2229}, {"measurement": "p, CFC Re-exposure, Prucalopride (3 mg/kg) vs. Prucalopride (10 mg/kg)", "setting": "129S6/SvEv mice [1]; [5]", "result": 0.0004}, {"measurement": "p, CFC Re-exposure, Prucalopride (10 mg/kg) vs. PF04995274 (3 mg/kg)", "setting": "129S6/SvEv mice [1]; [5]", "result": 0.7981}, {"measurement": "p, CFC Re-exposure, Prucalopride (10 mg/kg) vs. PF04995274 (10 mg/kg)", "setting": "129S6/SvEv mice [1]; [5]", "result": 0.0568}, {"measurement": "p, CFC Re-exposure, Saline vs. Prucalopride (3 mg/kg)", "setting": "129S6/SvEv mice [1]; [5]", "result": 0.0004}, {"measurement": "p, CFC Re-exposure, Saline vs. Prucalopride (10 mg/kg)", "setting": "129S6/SvEv mice [1]; [5]", "result": 0.4723}, {"measurement": "freezing during CFC training", "setting": "129S6/SvEv mice [1]; male 129S6/SvEv, (R,S)-ketamine 30, prucalopride 3 or 10, PF-04995274 3 or 10 mg/kg, 1 week before CFC, vs saline", "result": "comparable levels of freezing"}, {"measurement": "freezing at re-exposure to the training context (learned fear) vs saline", "setting": "129S6/SvEv mice [1]; male 129S6/SvEv, single i.p. injection 1 week before CFC, re-exposure 5 days later, 3 mg/kg", "result": "attenuated learned fear"}, {"measurement": "p, FST Day 2 Immobility Time (sec), Prucalopride (3 mg/kg) vs. PF04995274 (3 mg/kg)", "setting": "129S6/SvEv mice [2]; [6]", "result": 0.2475}, {"measurement": "p, FST Day 2 Immobility Time (sec), Prucalopride (3 mg/kg) vs. PF04995274 (10 mg/kg)", "setting": "129S6/SvEv mice [2]; [6]", "result": 0.4224}, {"measurement": "p, FST Day 2 Immobility Time (sec), Prucalopride (3 mg/kg) vs. Prucalopride (10 mg/kg)", "setting": "129S6/SvEv mice [2]; [6]", "result": 0.0568}, {"measurement": "p, FST Day 2 Immobility Time (sec), Prucalopride (10 mg/kg) vs. PF04995274 (3 mg/kg)", "setting": "129S6/SvEv mice [2]; [6]", "result": 0.6674}, {"measurement": "p, FST Day 2 Immobility Time (sec), Prucalopride (10 mg/kg) vs. PF04995274 (10 mg/kg)", "setting": "129S6/SvEv mice [2]; [6]", "result": 0.0209}, {"measurement": "p, FST Day 2 Immobility Time (sec), Saline vs. Prucalopride (3 mg/kg)", "setting": "129S6/SvEv mice [2]; [6]", "result": 0.0052}, {"measurement": "p, FST Day 2 Immobility Time (sec), Saline vs. Prucalopride (10 mg/kg)", "setting": "129S6/SvEv mice [2]; [6]", "result": 0.1772}, {"measurement": "p, FST Day 2 Immobility Time (min 3-6) (sec), Prucalopride (3 mg/kg) vs. PF04995274 (3 mg/kg)", "setting": "129S6/SvEv mice [2]; [7]", "result": 0.4089}, {"measurement": "p, FST Day 2 Immobility Time (min 3-6) (sec), Prucalopride (3 mg/kg) vs. PF04995274 (10 mg/kg)", "setting": "129S6/SvEv mice [2]; [7]", "result": 0.3387}, {"measurement": "p, FST Day 2 Immobility Time (min 3-6) (sec), Prucalopride (3 mg/kg) vs. Prucalopride (10 mg/kg)", "setting": "129S6/SvEv mice [2]; [7]", "result": 0.0622}, {"measurement": "p, FST Day 2 Immobility Time (min 3-6) (sec), Prucalopride (10 mg/kg) vs. PF04995274 (3 mg/kg)", "setting": "129S6/SvEv mice [2]; [7]", "result": 0.4653}, {"measurement": "p, FST Day 2 Immobility Time (min 3-6) (sec), Saline vs. Prucalopride (3 mg/kg)", "setting": "129S6/SvEv mice [2]; [7]", "result": 0.0093}, {"measurement": "p, FST Day 2 Immobility Time (min 3-6) (sec), Saline vs. Prucalopride (10 mg/kg)", "setting": "129S6/SvEv mice [2]; [7]", "result": 0.2443}, {"measurement": "p, FST Day 2 Immobility Time (min 3-6) (sec), Prucalopride (10 mg/kg) vs. PF04995274", "setting": "129S6/SvEv mice [2]; FIG. 4 cohort, Male, FIG. 4G, ANOVA, Fisher's LSD, PF04995274 dose stands below the shown rows", "result": 0.0156}, {"measurement": "immobility, FST day 1", "setting": "129S6/SvEv mice [2]; male 129S6/SvEv, (R,S)-ketamine 30, prucalopride 3 or 10, PF-04995274 3 or 10 mg/kg", "result": "comparable levels of immobility"}, {"measurement": "immobility time, FST day 2 vs saline", "setting": "129S6/SvEv mice [2]; male 129S6/SvEv, single injection 1 week before CFC, 3 mg/kg", "result": "decreased immobility time"}, {"measurement": "average EPSC amplitude vs saline", "setting": "CA3 pyramidal cells", "result": "no differences"}, {"measurement": "large AMPA receptor-mediated bursts of EPSCs", "setting": "CA3 pyramidal cells", "result": "not present"}, {"measurement": "number of EPSCs vs saline", "setting": "CA3 pyramidal cells", "result": "no differences"}, {"measurement": "Affinity (pKi)", "setting": "5-HT4R", "result": "8.1-8.6"}, {"measurement": "affinity for the hERG channels", "setting": "[3]", "result": "no affinity"}]}
